# Measurements from ChEMBL document CHEMBL5537193, “Multitargeting HDAC Inhibitors Containing a RAS/RAF Protein Interfering Unit” (J Med Chem, 2024).
# pIC50: −log10 of the molar value. Activity calls are given as the source filed them. The rule behind the calls is not given here.
# Columns and labels:
# [1] = system: A549; assay: cells; settings: Homo sapiens, A549, 72 h
# Description: Cytotoxicity against human A549 cells assessed as inhibition of cell growth incubated for 72 hrs by MTT assay
# [2] = system: NCI-H1975; assay: cells; settings: Homo sapiens, NCI-H1975, 72 h
# Description: Cytotoxicity against human NCI-H1975 cells assessed as inhibition of cell growth incubated for 72 hrs by MTT assay
# [3] = system: A-431; assay: cells; settings: Homo sapiens, A-431, 72 h
# Description: Cytotoxicity against human A-431 cells assessed as inhibition of cell growth incubated for 72 hrs by MTT assay
# [4] = system: SGC-7901; assay: cells; settings: Homo sapiens, SGC-7901, 72 h
# Description: Cytotoxicity against human SGC-7901 cells assessed as inhibition of cell growth incubated for 72 hrs by MTT assay
# [5] = system: HepG2; assay: cells; settings: Homo sapiens, HepG2, 72 h
# Description: Cytotoxicity against human HepG2 cells assessed as inhibition of cell growth incubated for 72 hrs by MTT assay
# [6] = system: MCF7; assay: cells; settings: Homo sapiens, MCF7, 72 h
# Description: Cytotoxicity against human MCF7 cells assessed as inhibition of cell growth incubated for 72 hrs by MTT assay
# [7] = system: L02; assay: cells; settings: Homo sapiens, L02, 72 h
# Description: Cytotoxicity against human L02 cells assessed as inhibition of cell growth incubated for 72 hrs by MTT assay
# [8] = biological target: Serine/threonine-protein kinase PLK1 (Homo sapiens, UniProt P53350); assay: Inhibition of PLK1 (unknown origin)
# Sequence of Serine/threonine-protein kinase PLK1 (P53350 whole entry): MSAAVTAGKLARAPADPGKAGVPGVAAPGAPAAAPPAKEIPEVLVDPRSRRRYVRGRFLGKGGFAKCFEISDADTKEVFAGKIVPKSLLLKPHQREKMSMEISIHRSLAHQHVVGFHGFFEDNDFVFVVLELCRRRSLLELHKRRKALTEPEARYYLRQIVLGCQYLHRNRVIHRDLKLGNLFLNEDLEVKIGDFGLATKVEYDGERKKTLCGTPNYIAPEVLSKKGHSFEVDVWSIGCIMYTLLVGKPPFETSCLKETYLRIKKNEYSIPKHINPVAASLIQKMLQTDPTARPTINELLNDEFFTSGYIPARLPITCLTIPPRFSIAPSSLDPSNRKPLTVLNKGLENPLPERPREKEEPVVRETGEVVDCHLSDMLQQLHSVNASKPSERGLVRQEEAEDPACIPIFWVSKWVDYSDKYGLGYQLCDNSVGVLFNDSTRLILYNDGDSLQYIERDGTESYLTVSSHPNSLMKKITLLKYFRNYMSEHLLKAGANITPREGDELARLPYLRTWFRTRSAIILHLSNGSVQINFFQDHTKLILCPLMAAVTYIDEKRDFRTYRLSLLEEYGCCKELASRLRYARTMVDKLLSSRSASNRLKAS
# [9] = system: PANC-1; assay: Cell cycle arrest in human PANC-1 cells assessed as accumulation of cells at GO-G1 phase at 2 uM incubated for 24 hrs by PI/RNase staining based flow cytometric analysis; type: functional
# [10] = system: PANC-1; assay: Induction of apoptosis in human PANC-1 cells assessed as apoptotic cells at 2 uM incubated for 24 hrs by flow cytometric analysis relative to control; type: functional
# [11] = system: HT-29; assay: Induction of apoptosis in human HT-29 cells assessed as apoptotic ratio at 2 uM incubated for 24 hrs by flow cytometric analysis; type: functional
# [12] = system: PANC-1; assay: Induction of apoptosis in human PANC-1 cells assessed as increase in Bax expression at 2 uM incubated for 24 hrs by Western blot analysis; type: functional, cell-based
# [13] = system: PANC-1; assay: Induction of apoptosis in human PANC-1 cells assessed as increase in Cytochrome C expression level at 2 uM incubated for 24 hrs by Western blot analysis; type: functional, cell-based
# [14] = system: PANC-1; assay: Induction of apoptosis in human PANC-1 cells assessed as increase in cleaved caspase-9 expression level at 2 uM incubated for 24 hrs by Western blot analysis; type: functional, cell-based
# [15] = system: PANC-1; assay: Induction of apoptosis in human PANC-1 cells assessed as increase in cleaved caspase-3 expression level at 2 uM incubated for 24 hrs by Western blot analysis; type: functional, cell-based
# [16] = system: PANC-1; assay: Induction of apoptosis in human PANC-1 cells assessed as increase in cleaved PARP expression level at 2 uM incubated for 24 hrs by Western blot analysis; type: functional, cell-based
pIC50 [1],pIC50 [2],pIC50 [3],pIC50 [4],pIC50 [5],pIC50 [6],pIC50 [8],SMILES,pIC50 [7],Activity [9],Activity [10],Activity [11],Activity [12],Activity [13],Activity [14],Activity [15],Activity [16]
5.03,5.40,5.69,5.26,4.83,5.26,–,COc1cc(OC)c(/C=C/S(=O)(=O)Cc2ccc(OC)c(NCCC(=O)NO)c2)c(OC)c1,< 4.40,–,–,–,–,–,–,–,–
–,–,–,5.54,–,–,5.80,O=C(CCCCCCC(=O)Nc1ccccc1)NO [VORINOSTAT],–,Active,20.5%,21.4%,Active,Active,Active,Active,Active
5.22,5.29,5.33,5.31,5.33,5.12,–,COc1cc(OC)c(/C=C/S(=O)(=O)Cc2ccc(OC)c(NCCCCCC(=O)NO)c2)c(OC)c1,< 4.40,–,–,–,–,–,–,–,–
5.44,5.66,5.38,5.30,5.32,5.31,–,COc1cc(OC)c(/C=C/S(=O)(=O)Cc2ccc(OC)c(NCC(=O)Nc3ccccc3N)c2)c(OC)c1,< 4.40,–,–,–,–,–,–,–,–
4.45,5.07,5.39,4.50,4.73,4.75,–,COc1cc(OC)c(/C=C/S(=O)(=O)Cc2ccc(OC)c(NC(=O)CCCC(=O)Nc3ccccc3N)c2)c(OC)c1,< 4.40,–,–,–,–,–,–,–,–
5.76,6.17,4.94,5.73,5.23,5.42,–,COc1cc(OC)c(/C=C/S(=O)(=O)Cc2ccc(OC)c(NC(=O)CCCC(=O)NO)c2)c(OC)c1,< 4.40,–,–,–,–,–,–,–,–
